Data as given in paper PMC11111895, “Identification of a dCache-type chemoreceptor in Campylobacter jejuni that specifically mediates chemotaxis towards methyl pyruvate” (Frontiers in Microbiology, 2024).

Key:
[1] = test system: pin-head Tar (Tar without LBD) or WT Tar; test: Microfluidic chemotaxis of E. coli expressing pin-head Tar or WT Tar; format: cell-based, E. coli VS188; conditions: microfluidic device, 50 min
[2] = test system: Tlp11[1-342]-Tar[200-553] (Tlp342Tar200); test: Microfluidic chemotaxis of E. coli expressing hybrid chemoreceptor Tlp342Tar200; format: cell-based, E. coli VS188; conditions: microfluidic device, 50 min
Description: The E. coli cells expressing hybrid chemoreceptor and GFP were grown in tryptone broth, up to an OD600 of 0.55, at 34°C, with shaking at 250 rpm. The cells were harvested by means of centrifugation at 5,000 rpm, washed twice with Tethering Buffer (10 mM KH2PO4, 10 mM K2HPO4, and 0.1 mM EDTA, pH 7.0), and resuspended in Tethering Buffer such that an OD600 of 5.5 was attained. The chemotactic responses of E. coli cells to the compounds were measured using a microfluidic device ([Si et al., 2012]). The collected E. coli cells were added to the sink pores of the device and allowed to freely diffuse into the observation channel for 40 min. Subsequently, the compound solution was added to the source pores, to establish a concentration gradient gradually in the observation channel of the device. Fluorescence intensity in the observation channel was detected using an LSM 800 laser scanning confocal microscope (Zeiss, Germany). Data were analyzed using ImageJ software.
To determine whether methyl pyruvate stimulates transmembrane signaling through Tlp11-LBD, we fused C. jejuni ATCC 33560 Tlp11-LBD with the cytoplasmic region of the E. coli chemoreceptor Tar to construct Tlp11-Tar hybrid chemoreceptors (Figure 3A). Five hybrid receptors with different fusion positions in the second transmembrane helix (TM2) were obtained: Tlp11[1-342]-Tar[200-553] (Tlp342Tar200), Tlp11[1-343]-Tar[200-553] (Tlp343Tar200), Tlp11[1-346]-Tar[204-553] (Tlp346Tar204), Tlp11[1-347]-Tar[204-553] (Tlp347Tar204), and Tlp11[1-348]-Tar[204-553] (Tlp348Tar204) (Supplementary Figure S5A). To verify the activities of these hybrid chemoreceptors, we expressed each protein as a chimera in green fluorescent protein (GFP)-labeled E. coli VS188 without any other chemoreceptors, such that each hybrid receptor served as the only chemoreceptor in the E. coli. […] These chemotactic responses triggered by glucose through the phosphotransferase system are independent of the chemoreceptor LBD ([Neumann et al., 2012]). […] Thus, we used this hybrid receptor for subsequent chemotaxis measurements.

[3] = target: Tlp11-LBD homologue (WP_066386874.1, residues 33-320); test: MST of Tlp11-LBD homologue; format: binding, Helicobacter himalayensis; conditions: H. himalayensis LBD
Description: (§1) The His-tag dye (MO-L018 RED-tris-NTA, NanoTemper, Germany) was adjusted to a final concentration of 25 nM and used to label the purified protein with a His-tag. The compound was diluted to a series of concentrations in phosphate-buffered saline ([Duan et al., 2023]) with 0.05% Tween 20 (PBS-T) buffer and mixed in a ratio of 1:1 with protein. The mixtures were loaded into capillaries (Monolith™ Series capillaries, NanoTemper) by means of capillary action. Thermophoresis was measured using a Monolith™ NT.115 (NanoTemper) instrument, with 40% excitation and 40% MST power configuration. The time-traces of changes in fluorescence, which reflected the thermophoretic movement of labeled protein affected by different concentrations of compound were recorded, and the dose–response curves were fitted with the ‘temperature jump and thermophoresis’ mode. Data analysis was performed using MO. Affinity Analysis version 2.3 (NanoTemper) and Prism version 8.0.2 (GraphPad Software, United States).
(§2) To evaluate whether these potential Tlp11-LBD homologues could bind to methyl pyruvate, we conducted a structural analysis of the LBDs of six chemoreceptors from C. coli, H. equorum, H. himalayensis, H. mesocricetorum, H. ganmani, and C. upsaliensis using Alphafold 2. […]

[4] = target: Tlp11-LBD homologue (WP_199770133.1, residues 31-330); test: MST of Tlp11-LBD homologue; format: binding, Helicobacter mesocricetorum; conditions: H. mesocricetorum LBD
Description: as §1, §2

[5] = test system: full-length PhoQ or an empty vector; test: GFP reporter assay, control cells; format: cell-based, E. coli MG1655/ΔPhoQ; conditions: 40 min
Description: The reporter plasmid pUA66-PmgtLA-GFP and the plasmid encoding the hybrid kinase were together transformed into E. coli MG1655/ΔPhoQ strain. E. coli cells containing the reporter and Tlp11-PhoQ chimera were incubated in Medium A, at 37°C, with shaking (200 rpm), until an OD600 of 0.4 was attained, following which different concentrations of methyl pyruvate were added to the medium and the cells were incubated for 40 min. The fluorescence intensity of the cells was monitored using a plate reader (Varioskan™ LUX, Life Technologies) equipped with a 488 nm laser and a 528/12 bandpass filter. The acquired data were analyzed using Prism 8.0.2.
To construct the signal input module, we fused the Tlp11-LBD with the PhoQ cytoplasmic region, to design the Tlp11-PhoQ hybrid kinases (Supplementary Figure S6), Tlp11[1-337]-PhoQ[200-486] (Tlp337PhoQ200), Tlp11[1-339]-PhoQ[200-486] (Tlp339PhoQ200), Tlp11[1-339]-PhoQ[201-486] (Tlp339PhoQ201), Tlp11[1-340]-PhoQ[202-486] (Tlp340PhoQ202), Tlp11[1-340]-PhoQ[200-486] (Tlp340PhoQ200), Tlp11[1-341]-PhoQ[202-486] (Tlp341PhoQ202), Tlp11[1-342]-PhoQ[[…]] (Tlp342PhoQ202), Tlp11[1-343]-PhoQ[202-486] (Tlp343PhoQ202), which connected Tlp11 and PhoQ in TM2 (Supplementary Figure S7C). The activity of each chimera in sensing methyl pyruvate was determined by measuring the fluorescence intensity of GFP in the E. coli MG1655/ΔPhoQ strain.

[6] = target: Tlp11-LBD homologue (WP_201459806.1, residues 32-332); test: MST of Tlp11-LBD homologue; format: binding, Campylobacter coli; conditions: C. coli LBD
Description: as §1, §2

With `COC(=O)C(C)=O` [methyl pyruvate, Methyl pyruvate] the “chemotactic response of E. coli expressing pin-head Tar or WT Tar as the sole chemoreceptor” value [1] was “no response or a much weaker response”, the “chemotactic response of E. coli expressing Tlp342Tar200 as the sole receptor” value [2] was “strong attractant response” and the Kd [3] was 1100 ± 300 µM. The Kd [4] was 1200 ± 400 µM, the “response (GFP fluorescence intensity) of control cells” value [5] was “almost no response” and the Kd [6] was 1400 ± 500 µM.
